Assay [1] has as its target T1, full-length recombinant human NEK7 (Homo sapiens, UniProt Q8TDX7).
T1 construct: full-length recombinant human NEK7; GST (N); purchased SignalChem NO9-10G; host or cells: Sf9 insect cells (baculovirus)
As to the kind of experiment: NEK7 enzymatic assay. The format is biochemical. The conditions noted are these: recombinant human NEK7, casein substrate, radiolabelled ATP. On the procedure: Casein substrate (from bovine milk, hydrolyzed and partially dephosphorylated mixture of α, β and κ caseins, obtained from Sigma Aldrich, catalogue #C4765, diluted in distilled water to a final concentration of 1 mg/mL) and full-length recombinant human NEK7 (expressed by baculovirus in Sf9 insect cells using a N-terminal GST tag, obtained from SignalChem, catalogue #NO9-10G, 0.1 μg/μL) were mixed in assay buffer (20 mM Hepes pH 7.5, 10 mM MgCl2, 1 mM EGTA, 0.02% Brij35, 0.02 mg/ml BSA, 0.1 mM Na3VO4, 2 mM DTT, 1% DMSO). Compounds of interest (serial 3-fold dilution in DMSO from 10 μM to 0.5 nM) or vehicle (1% DMSO) were dispensed into the kinase reaction mixture by Acoustic technology (Echo550; nanoliter range). After incubation at room temperature for 20 minutes, the kinase reaction was initiated by addition of [^33P]-ATP (specific activity 10 μCi/μl) and the mixture was incubated at room temperature for 2 hours. The reaction was then stopped by spotting the reaction mixture on strips of phosphocellulose P81 paper. Following washing, the radioactivity of the P81 paper was measured and kinase activity data were expressed as the percent remaining kinase activity in test samples compared to vehicle reactions. IC50 values and curve fits were obtained using Prism (GraphPad Software).
Casein substrate (from bovine milk, hydrolyzed and partially dephosphorylated mixture of α, β and κ caseins, obtained from Sigma Aldrich, catalogue #C4765, diluted in distilled water to a final concentration of 1 mg/mL, assay concentration 20 μM) and full-length recombinant human Nek7 (expressed by baculovirus in Sf9 insect cells using a N-terminal GST tag, obtained from SignalChem, catalogue #NO9-10G, 0.1 μg/μL, assay concentration 70 nM) were mixed in assay buffer (20 mM Hepes pH 7.5, 10 mM MgCl2, 1 mM EGTA, 0.02% Brij35, 0.02 mg/ml BSA, 0.1 mM […], 2 mM DTT, 1% DMSO). Compounds of interest (in DMSO, serial 3-fold dilution from 10 μM to 0.5 nM) or control (1% DMSO) were dispensed into the kinase reaction mixture by Acoustic technology (Echo550; nanoliter range). After incubation at room temperature for 20 minutes, the kinase reaction was initiated by addition of [^32P]-ATP (Specific activity 10 μCi/μl) and the mixture was incubated at room temperature for 2 hours. The reaction was then stopped by spotting the reaction mixture on strips of phosphocellulose P81 paper. Following washing, the radioactivity of the P81 paper was measured and kinase activity data were expressed as the percent remaining kinase activity in test samples compared to vehicle (dimethyl sulfoxide) reactions. IC50 values and curve fits were obtained using Prism (GraphPad Software).

Assay [2] relates to IL-1β release. As to the kind of experiment: IL-1β release assay (THP-1 cells, PMA, LPS, nigericin). The format is cell-based. Conditions: Homo sapiens, LPS 250 ng/mL, nigericin 20 μM, cleaved IL-1β in media. On the procedure: Approximately 1.5 million THP-1 cells were plated in each well of a 6-well TC plate and incubated with 40 nM PMA in RPMI (10% FBS, 1% Penstrep) for 24 hours. The media was then removed and cells were rested in RPMI (10% FBS, 1% Penstrep) for 24 hours after which time the media was removed and cells were pre-treated for 2 hours with various concentrations of compounds of interest (typically serial 3-fold dilution in RPMI+5% FBS, concentrations ranging from 1 μM to 0.5 nM) in RPMI (5% FBS). The media was again removed and cells were incubated with 250 ng/mL LPS and compounds of interest (concentrations as above) in RMPI (5% FBS) for 2 hours. The media was removed for a last time and cells were incubated with 20 μM nigericin and compounds of interest (concentrations as above) in Opti-MEM for 30 minutes. Cell media was then collected and the amount of cleaved IL-1β was determined using a JESS instrument (Protein Simple) and standard protocols. Cleaved Il-1β antibody was obtained from Cell Signaling (catalogue #83186S) and was used at 1:20 dilution in antibody diluent 2. Protein Simple 1× anti-Rabbit HRP secondary antibody was used along with Protein Simple luminol and peroxide for chemiluminescent detection. Primary antibody incubation time was increased from 30 minutes to 60 minutes.

Bounds are passed on as bounds.

T1 sequence (Q8TDX7 whole entry): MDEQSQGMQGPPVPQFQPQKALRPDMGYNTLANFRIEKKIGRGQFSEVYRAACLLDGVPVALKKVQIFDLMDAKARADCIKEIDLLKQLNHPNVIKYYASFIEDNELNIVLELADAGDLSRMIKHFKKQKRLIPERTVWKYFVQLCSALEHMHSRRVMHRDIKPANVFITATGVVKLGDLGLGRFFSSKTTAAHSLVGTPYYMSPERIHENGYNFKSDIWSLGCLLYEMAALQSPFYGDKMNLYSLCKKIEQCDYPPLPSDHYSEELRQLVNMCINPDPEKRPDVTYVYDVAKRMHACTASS

By IC50 is commonly meant the concentration that gives 50% inhibition. Take `COCCn1cc(-c2ccc(NC(=O)Nc3ccc(CN4CCN(C)CC4)c(C(F)(F)F)c3)c(F)c2)c2c(N)ncnc21` [Example I-81, 1-(4-(4-amino-7-(2-methoxyethyl)-7H-pyrrolo[2,3-d]pyrimidin-5-yl)-2-fluorophenyl)-3-(4-((4-methylpiperazin-1-yl)methyl)-3-(trifluoromethyl)phenyl)urea]: the IC50 was below 100 nM in assay [1] and below 50 nM in assay [2]. For `CS(=O)(=O)N1CCN(Cc2ccc(NC(=O)Nc3ccc(-c4cn(C5CC5)c5ncnc(N)c45)cc3F)cc2C(F)(F)F)CC1` [Example I-98, 1-(4-(4-amino-7-cyclopropyl-7H-pyrrolo[2,3-d]pyrimidin-5-yl)-2-fluorophenyl)-3-(4-((4-(methylsulfonyl)piperazin-1-yl)methyl)-3-(trifluoromethyl)phenyl)urea] the same measures were 500 to 2000 nM and above 1000 nM. On the same counts, the results for `CC(=O)N1CCN(Cc2ccc(NC(=O)Nc3ccc(-c4cn(C5CC5)c5ncnc(N)c45)cc3F)cc2C(F)(F)F)CC1` [Example I-80, 1-(4-((4-acetylpiperazin-1-yl)methyl)-3-(trifluoromethyl)phenyl)-3-(4-(4-amino-7-cyclopropyl-7H-pyrrolo[2,3-d]pyrimidin-5-yl)-2-fluorophenyl)urea] are 100 to 500 nM and above 1000 nM. On the same counts, the results for `CN1CCN(Cc2ncc(NC(=O)Nc3ccc(-c4cn(C5CC5)c5ncnc(N)c45)cc3F)cc2C(F)(F)F)CC1` [Example I-68, 1-(4-(4-amino-7-cyclopropyl-7H-pyrrolo[2,3-d]pyrimidin-5-yl)-2-fluorophenyl)-3-(6-((4-methylpiperazin-1-yl)methyl)-5-(trifluoromethyl)pyridin-3-yl)urea] are 100 to 500 nM and 50 to 250 nM.

On to `CN1CCN(Cc2ccc(NC(=O)Nc3ccc(-c4cn(C5CC5)c5ncnc(N)c45)cc3F)cc2OC(F)(F)F)CC1` [Example I-78, 1-(4-(4-amino-7-cyclopropyl-7H-pyrrolo[2,3-d]pyrimidin-5-yl)-2-fluorophenyl)-3-(4-((4-methylpiperazin-1-yl)methyl)-3-(trifluoromethoxy)phenyl)urea], for which the IC50 was in the range of 100 to 500 nM in assay [1] and 50 to 250 nM in assay [2]. For `CN1CCN(C(=O)c2ccc(NC(=O)Nc3ccc(-c4nn(C5CC5)c5ncnc(N)c45)cc3F)cc2C(F)(F)F)CC1` [Example I-49, 1-(4-(4-amino-1-cyclopropyl-1H-pyrazolo[3,4-d]pyrimidin-3-yl)-2-fluorophenyl)-3-(4-(4-methylpiperazine-1-carbonyl)-3-(trifluoromethyl)phenyl)urea] the same measures were 100 to 500 nM and 50 to 250 nM. For `COCCN1CCN(Cc2ccc(NC(=O)Nc3ccc(-c4cn(C5CC5)c5ncnc(N)c45)cc3F)cc2C(F)(F)F)CC1` [Example I-43, 1-(4-(4-amino-7-cyclopropyl-7H-pyrrolo[2,3-d]pyrimidin-5-yl)-2-fluorophenyl)-3-(4-((4-(2-methoxyethyl)piperazin-1-yl)methyl)-3-(trifluoromethyl)phenyl)urea], the IC50 in assay [1] was below 100 nM; in assay [2], 50 to 250 nM.

With `CN1CCN(Cc2ccc(NC(=O)Nc3ccc(-c4nn(CCO)c5ncnc(N)c45)cc3F)cc2C(F)(F)F)CC1` [Example I-76, 1-(4-(4-amino-1-(2-hydroxyethyl)-1H-pyrazolo[3,4-d]pyrimidin-3-yl)-2-fluorophenyl)-3-(4-((4-methylpiperazin-1-yl)methyl)-3-(trifluoromethyl)phenyl)urea], the results for the IC50 in assay [1] and in assay [2] were below 100 nM and 50 to 250 nM, respectively. On the same counts, the results for `CN1CCN(C2CC(F)(F)c3cc(NC(=O)Nc4ccc(-c5nn(C6CC6)c6ncnc(N)c56)cc4F)ccc32)CC1` (stereo not shown) [Example I-94, 1-(4-(4-amino-1-cyclopropyl-1H-pyrazolo[3,4-d]pyrimidin-3-yl)-2-fluorophenyl)-3-(3,3-difluoro-1-(4-methylpiperazin-1-yl)-2,3-dihydro-1H-inden-5-yl)urea] are below 100 nM and 50 to 250 nM. For `CC(C)n1nc(-c2ccc(NC(=O)Nc3ccc(CN4CCN(C)CC4)c(C(F)(F)F)c3)cc2)c2c(N)ncnc21` [Example I-24, 1-(4-(4-amino-1-isopropyl-1H-pyrazolo[3,4-d]pyrimidin-3-yl)phenyl)-3-(4-((4-methylpiperazin-1-yl)methyl)-3-(trifluoromethyl)phenyl)urea] the same measures were below 100 nM and below 50 nM. On to `CN1CCN(c2ccc(NC(=O)Nc3ccc(-c4cn(C5CC5)c5ncnc(N)c45)cc3F)cc2C(F)(F)F)CC1` [Example I-3], for which the IC50 in assay [2] was 250 to 1000 nM. Still for that read-out and setting: for `Nc1ncnc2c1c(-c1ccc(NC(=O)Nc3ccc(CN4CCOCC4)c(C(F)(F)F)c3)c(F)c1)cn2C1CC1` [Example I-32, 1-(4-(4-amino-7-cyclopropyl-7H-pyrrolo[2,3-d]pyrimidin-5-yl)-2-fluorophenyl)-3-(4-(morpholinomethyl)-3-(trifluoromethyl)phenyl)urea] the value was 250 to 1000 nM. Still for that read-out and setting: for `CN1CCC(Oc2ncc(NC(=O)Nc3ccc(-c4cn(C5CC5)c5ncnc(N)c45)cc3F)cc2C(F)(F)F)CC1` [Example I-61, 1-(4-(4-amino-7-cyclopropyl-7H-pyrrolo[2,3-d]pyrimidin-5-yl)-2-fluorophenyl)-3-(6-((1-methylpiperidin-4-yl)oxy)-5-(trifluoromethyl)pyridin-3-yl)urea] the value was above 1000 nM.

For the compound `CN1CCCN(Cc2ccc(NC(=O)Nc3ccc(-c4cn(C5CC5)c5ncnc(N)c45)cc3F)cc2C(F)(F)F)CC1` [Example I-44, 1-(4-(4-amino-7-cyclopropyl-7H-pyrrolo[2,3-d]pyrimidin-5-yl)-2-fluorophenyl)-3-(4-((4-methyl-1,4-diazepan-1-yl)methyl)-3-(trifluoromethyl)phenyl)urea], the IC50 in assay [1] is below 100 nM. Compound `CN1CCN(Cc2ccc(NC(=O)Nc3ccc(-c4nn(C5CC5)c5ccnc(N)c45)cn3)cc2C(F)(F)F)CC1` [Example I-51, 1-(5-(4-amino-1-cyclopropyl-1H-pyrazolo[4,3-c]pyridin-3-yl)pyridin-2-yl)-3-(4-((4-methylpiperazin-1-yl)methyl)-3-(trifluoromethyl)phenyl)urea] displayed an IC50 in assay [2] of 50 to 250 nM. For the compound `CN1CCC(Cc2ccc(NC(=O)Nc3ccc(-c4cn(C5CC5)c5ncnc(N)c45)cc3F)cc2C(F)(F)F)CC1` [Example I-11, 1-(4-(4-amino-7-cyclopropyl-7H-pyrrolo[2,3-d]pyrimidin-5-yl)-2-fluorophenyl)-3-(4-((1-methylpiperidin-4-yl)methyl)-3-(trifluoromethyl)phenyl)urea], the IC50 in assay [1] was above 2000 nM. `CN1C[C@@H]2CN(Cc3ccc(NC(=O)Nc4ccc(-c5cn(C6CC6)c6ncnc(N)c56)cc4F)cc3C(F)(F)F)C[C@@H]2C1` [Example I-5, 1-(4-(4-amino-7-cyclopropyl-7H-pyrrolo[2,3-d]pyrimidin-5-yl)-2-fluorophenyl)-3-(4-(((3aR,6aS)-5-methylhexahydropyrrolo[3,4-c]pyrrol-2(1H)-yl)methyl)-3-(trifluoromethyl)phenyl)urea]: the IC50 in assay [1] is 100 to 500 nM.

As for `CN1CC2CCC1CN2Cc1ccc(NC(=O)Nc2ccc(-c3cn(C4CC4)c4ncnc(N)c34)cc2F)cc1C(F)(F)F` (stereo not shown) [Example I-9, 1-(4-(4-amino-7-cyclopropyl-7H-pyrrolo[2,3-d]pyrimidin-5-yl)-2-fluorophenyl)-3-(4-((5-methyl-2,5-diazabicyclo[2.2.2]octan-2-yl)methyl)-3-(trifluoromethyl)phenyl)urea], in assay [1], the IC50 was in the range of 100 to 500 nM.

(Values after patent publication US20240317758A1 (Halia Therapeutics, Inc., priority 2021, published 2024).)
